Values quoted from earlier work, collected in publication PMC4228152 (BMC Pulmonary Medicine, 2014).
Like-named read-outs stand apart in the source and are kept apart here.

Legend:
[1] = test system: allergen induced asthmatic response
monocytes = test system: monocytes; parameters: method as in PMID 11865966; settings: subjects after 4 weeks treatment
[2] = administered orally
[3] = inhaled inhibitor, read-out: IC50

SMILES | fall in LAR ([1]; inhaled) | IC50 (PDE4; [3]) | reduction in LAR ([1]; inhaled) | reduction in LAR AUC ([1]; oral) | inhibition of the maximal fall in the EAR ([1]; orally administered) | inhibition of the maximal fall in the LAR ([1]; orally administered) | inhibition of LPS-induced TNFα release in monocytes ex vivo (monocytes) | IC50 (PDE4A) | IC50 (PDE4; average of three isoforms, read-out: IC50 average for PDE4-A, -B and -D) | IC50 (PDE4D) | IC50 (PDE4B) | mean Cmax [2]
CS(=O)(=O)Nc1ccc(C(=O)O[C@@H](Cc2c(Cl)c[n+]([O-])cc2Cl)c2ccc(OC(F)F)c(OCC3CC3)c2)cc1OCC1CC1 [CHF6001] | 30% | 0.026 nM | – | – | – | – | – | – | – | – | – | –
COc1cccc(Nc2c(C(N)=O)cnc3c(C)cc(S(=O)(=O)c4cccc(C(=O)N(C)C)c4)cc23)c1 [GSK256066] | – | 0.0032 nM | 34% | – | – | – | – | – | – | – | – | –
O=C(Nc1c(Cl)cncc1Cl)c1ccc(OC(F)F)c(OCC2CC2)c1 [roflumilast] | – | – | – | 43% | 14-28% | 16-43% | 1.3 fold | […] | 0.5 nM | […] | […] | 2,000 pg/ml
